Measured values published in patent US20220135663A1, “Method of treatment of Chronic Low Back Pain” (Pfizer Inc., priority 2019, published 2022).
“Also recorded” adds a separate entry of the source.

Legend:
[1] = system: subjects with chronic low back pain (CLBP); assay: Study 1063, Phase 3 in Japan: efficacy (LBPI, RMDQ) in chronic low back pain; assay type: in vivo, human
Method: Patients received a total of seven SC injections, separated by 8 weeks (tanezumab or
Treatment groups were as follows: 1. […] Placebo for tanezumab SC and celecoxib BID.
The Intent-to-Treat (ITT) analysis set included all patients who were randomized and received at least one dose of SC study medication (either tanezumab or placebo). This analysis set was primary for all efficacy endpoints, which were analyzed according to randomization assignment, and was labeled as the ‘ITT population’.

NGF [2] = molecular target: T1, NGF (Homo sapiens, UniProt P01138); conditions: cell culture models; cited from earlier work
T1 sequence (P01138 122-241): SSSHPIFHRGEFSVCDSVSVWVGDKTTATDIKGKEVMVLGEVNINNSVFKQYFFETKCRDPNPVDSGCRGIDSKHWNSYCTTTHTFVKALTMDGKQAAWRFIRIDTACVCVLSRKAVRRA

[3] = system: adult patients with chronic low back pain; assay: Study 1059, Phase 3: efficacy (LBPI, RMDQ) in chronic low back pain; assay type: in vivo, human
Method: The Low Back Pain Intensity (LBPI) measure is assessed with an 11-point numeric rating scale ranging from 0 (no pain) to 10 (worst possible pain). The LBPI score can be the daily average LBPI score.
The Roland Morris Disability Questionnaire (RMDQ) is an index of how well subjects with low back pain are able to function with regard to daily activities (Roland M, Fairbank. The Roland-Morris Questionnaire and the Oswestry Disability Questionnaire. Spine. 2000; 25 (4)3115-3124). It is a low back pain-specific assessment of physical function with scores ranging from 0 to 24 (lower scores indicate better function).
(§1) Patients were also required to have documented history of previous inadequate treatment response to at least 3 different categories of agents commonly used and generally considered effective for the treatment of chronic low back pain. Patients were required to discontinue all medications for the treatment of chronic low back pain during the primary efficacy assessment period (up to Week 16).
Approximately 1800 patients were planned to be randomized initially in a 2:2:2:3 ratio to 1 of 4 following treatment groups:
1. Placebo administered SC at an 8-week interval plus placebo matching tramadol PR up to Week 16. At the Week 16 visit, patients in this group were switched in a blinded fashion in a 1:1 ratio to either tanezumab 5 mg or tanezumab 10 mg administered SC at an 8 week interval plus placebo matching tramadol PR to Week 56;
2. Tanezumab 5 mg SC administered at an 8-week interval plus placebo matching tramadol PR to Week 56;
3. Tanezumab 10 mg SC administered at an 8-week interval plus placebo matching tramadol PR to Week 56;
4. Oral tramadol PR 100-300 mg daily plus placebo administered SC at an 8-week interval to Week 56.
To achieve the initial randomization and intended re-randomization at Week 16 for placebo patients, a randomization ratio 1:1:2:2:3 for placebo→tanezumab 5 mg (at Week 16), placebo→tanezumab 10 mg (at Week 16), tanezumab 5 mg, tanezumab 10 mg, and tramadol PR was used at the beginning of the trial.
Table 2 summarizes the requirements for analgesic medication usage prior to Screening and the requirements for LBPI and Patient's Global Assessment (PGA) of CLBP. The current study enrolled patients who were more refractory to standard of care treatments for CLBP and had higher LBPI scores at Baseline.

[4] = system: adult patients with chronic low back pain; assay: Study 1059: adverse events and adjudicated joint safety; assay type: in vivo, human; conditions: for incidence of discontinuations from treatment due to an adverse event / incidence of serious adverse events / overall incidence of adverse events: 56-week treatment period
Source text: For subjects who are identified with a possible or probable joint event (i.e., rapidly progressive osteoarthritis, subchondral insufficiency fractures, spontaneous osteonecrosis of the knee (SPONK), primary osteonecrosis or pathological fracture) and subjects undergoing total joint replacement for any reason, all images and other source documentation may be provided to the blinded Adjudication Committee for review and adjudication of the event. The Adjudication Committee's assessment of the event may represent the final classification of the event.
as §1

[5] = system: subjects with chronic low back pain (CLBP); conditions: in vivo
Method: This second study (termed “Study 1063) was a randomized, double-blind, active-controlled, multicenter, parallel-group Phase 3 study in Japan to evaluate the safety and efficacy of tanezumab when administered by SC injection for up to 56 weeks in subjects with chronic low back pain (CLBP). […] Patients were also required to be experiencing some benefit from their current stable dose regimen of oral therapy of NSAID (celecoxib 200 mg/day [100 mg BID], loxoprofen 120 to 180 mg/day or meloxicam 5 to 15 mg/day) treatment, but still required additional pain relief at screening. […] Patients with a diagnosis of osteoarthritis of the knee or hip as defined by the American College of Rheumatology combined clinical and radiographic criteria or who had Kellgren Lawrence Grade ≥2 radiographic evidence of hip osteoarthritis or Kellgren Lawrence Grade ≤3 radiographic evidence of knee osteoarthritis were excluded.
Treatment groups were as follows: 1. Tanezumab 5 mg SC and placebo for celecoxib BID; 2. Tanezumab 10 mg SC and placebo for celecoxib BID; 3. Placebo for tanezumab SC and celecoxib BID.
This study was designed with a total (post-randomization) duration of 80 weeks and consisted of three periods: (1) a Screening period (up to a maximum of 37 days), (2) a Double-blind Treatment period (56 weeks), and (3) a Safety Follow-up (24 weeks) Period (FIG. 8). The Screening Period included a Washout Period (lasting 2-32 days) if required, and an Initial Pain Assessment Period (IPAP) (5 days prior to Randomization/Baseline; minimum 4 days).
The Safety analysis set included all patients who received at least one dose of SC study treatment. This analysis set was primary for all safety endpoints, which were analyzed according to treatment received, and was labeled as the ‘Safety population’. In this study, the ITT and Safety analysis sets were identical.

OA = conditions: tanezumab 2.5-5 mg combined, N = 2000; cited from earlier work
NGF [6] = molecular target: T1, NGF; conditions: cited from earlier work
[7] = 5 mg SC every 8 weeks, listed as Tan
[8] = 10 mg SC every 8 weeks, listed as Tan
[9] = tanezumab 5-10 mg combined, N = 1008

tanezumab: humanized IgG2 monoclonal antibody directed against human nerve growth factor (NGF); heavy chain SEQ ID NO: 9 or 11, light chain SEQ ID NO: 10
Proportion of Patients with ≥50% Improvement in LBPI at Week 16 (Mixed BOCF/LOCF) ([1]; 5 mg SC every 8 weeks): (51.1%)
Proportion with ≥50% Improvement in LBPI at Week 16, Difference vs. celecoxib ([1]; 5 mg SC every 8 weeks): 18.5
Change from Baseline to Week 16 in LBPI (Multiple Imputation), LS Mean ([1]; 5 mg SC every 8 weeks, ITT): −2.91
Change from Baseline to Week 16 in RMDQ (Multiple Imputation), LS Mean ([1]; 5 mg SC every 8 weeks, ITT): −3.85
Change from Baseline to Week 16 in RMDQ, LS Mean Difference vs. celecoxib ([1]; 5 mg SC every 8 weeks, ITT): −0.01
treatment differences for change from baseline to Week 56 for LBPI and RMDQ ([1]; 5 mg group relative to both the tanezumab 10 mg and the celecoxib groups): numerically larger
Proportion of Patients with ≥50% Improvement in LBPI at Week 16 (Mixed BOCF/LOCF) ([1]; 10 mg SC every 8 weeks): (35.5%)
Proportion with ≥50% Improvement in LBPI at Week 16, Difference vs. celecoxib ([1]; 10 mg SC every 8 weeks): 2.9
Change from Baseline to Week 16 in LBPI (Multiple Imputation), LS Mean ([1]; 10 mg SC every 8 weeks, ITT): −2.51
Change from Baseline to Week 16 in RMDQ (Multiple Imputation), LS Mean ([1]; 10 mg SC every 8 weeks, ITT): −4.38
blocking of the activity of NGF (NGF [2]): blocks the activity of NGF effectively
LBPI at week 56, LS mean difference versus tramadol ([3]; 5 mg SC every 8 weeks): −0.11
LBPI change from Baseline to Week 2, Difference vs. plc ([3]; 5 mg SC every 8 weeks): −0.37
LBPI change from Baseline to Week 2, LS Mean ([3]; 5 mg SC every 8 weeks): −1.54
LBPI change from Baseline to Week 16, Difference vs. plc ([3]; 5 mg SC every 8 weeks): No statistically significant improvement
LBPI change from Baseline to Week 16, LS Mean ([3]; 5 mg SC every 8 weeks): −2.98
Proportion of patients with ≥50% improvement in LBPI at Week 16 ([3]; 5 mg SC every 8 weeks): (43.3) %
RMDQ at week 56, LS mean difference versus tramadol ([3]; 5 mg SC every 8 weeks): −0.44
RMDQ change from Baseline to Week 16, Difference vs. plc ([3]; 5 mg SC every 8 weeks): larger improvement in RMDQ versus placebo treatment
RMDQ change from Baseline to Week 16, LS Mean ([3]; 5 mg SC every 8 weeks): −6.27
percentage of patients achieving ≥30% improvement in LBPI at week 16 ([3]; 5 mg SC every 8 weeks): 64.8%
≥30% improvement in LBPI at week 16, odds ratio versus placebo ([3]; 5 mg SC every 8 weeks): 1.45
≥30% improvement in LBPI at week 16, odds ratio versus tramadol ([3]; 5 mg SC every 8 weeks): 1.34
≥50% improvement in LBPI at Week 16, OR vs. plc ([3]; 5 mg SC every 8 weeks): 1.28
LBPI change from Baseline to Week 16, Difference vs. plc [3, 7]: −0.30
RMDQ change from Baseline to Week 16, Difference vs. plc [3, 7]: −1.32
LBPI at week 56, LS mean difference versus tramadol ([3]; 10 mg SC every 8 weeks): −0.21
LBPI change from Baseline to Week 2, Difference vs. plc ([3]; 10 mg SC every 8 weeks): onset of effect at Week 2
LBPI change from Baseline to Week 2, LS Mean ([3]; 10 mg SC every 8 weeks): −1.59
LBPI change from Baseline to Week 16, Difference vs. plc ([3]; 10 mg SC every 8 weeks): statistically significant improvement
LBPI change from Baseline to Week 16, LS Mean ([3]; 10 mg SC every 8 weeks): −3.08
Proportion of patients with ≥50% improvement in LBPI at Week 16 ([3]; 10 mg SC every 8 weeks): (46.3) %
RMDQ at week 56, LS mean difference versus tramadol ([3]; 10 mg SC every 8 weeks): −0.83
RMDQ change from Baseline to Week 16, Difference vs. plc ([3]; 10 mg SC every 8 weeks): superior improvement in physical function
RMDQ change from Baseline to Week 16, LS Mean ([3]; 10 mg SC every 8 weeks): −6.69
percentage of patients achieving ≥30% improvement in LBPI at week 16 ([3]; 10 mg SC every 8 weeks): 65.5%
≥30% improvement in LBPI at week 16, odds ratio versus placebo ([3]; 10 mg SC every 8 weeks): 1.50
≥30% improvement in LBPI at week 16, odds ratio versus tramadol ([3]; 10 mg SC every 8 weeks): 1.38
≥50% improvement in LBPI at Week 16, OR vs. plc ([3]; 10 mg SC every 8 weeks): superior responder rate
LBPI change from Baseline to Week 2, Difference vs. plc [3, 8]: −0.42
LBPI change from Baseline to Week 16, Difference vs. plc [3, 8]: −0.40
RMDQ change from Baseline to Week 16, Difference vs. plc [3, 8]: −1.74
≥50% improvement in LBPI at Week 16, OR vs. plc [3, 8]: 1.45
incidence of adverse events of potential sympathetic dysfunction ([4]; 5 mg): 5.9%
incidence of carpal tunnel syndrome ([4]; 5 mg): 1.0%
incidence of hypoaesthesia ([4]; 5 mg): 3.0%
incidence of composite joint safety endpoint ([4]; 5 mg SC every 8 weeks): 1.0%
observation-time adjusted rate of composite joint safety endpoint ([4]; 5 mg SC every 8 weeks): 10.0 events/1000 patient-years
patients adjudicated to normal progression of OA, number ([4]; 5 mg SC every 8 weeks): 1 patient
patients with joint safety event adjudicated to RPOA Type 1 ([4]; 5 mg SC every 8 weeks): 1.0%
patients with joint safety event adjudicated to RPOA Type 1, number ([4]; 5 mg SC every 8 weeks): 5 patients
incidence of discontinuations from treatment due to an adverse event ([4]; 5 mg): 6.7%
incidence of serious adverse events ([4]; 5 mg): 2.2%
overall incidence of adverse events ([4]; 5 mg): 58.3%
incidence of adverse events of potential sympathetic dysfunction ([4]; 10 mg): 6.4%
incidence of carpal tunnel syndrome ([4]; 10 mg): 1.6%
incidence of hypoaesthesia ([4]; 10 mg): 3.8%
incidence of composite joint safety endpoint ([4]; 10 mg SC every 8 weeks): 2.6%
observation-time adjusted rate of composite joint safety endpoint ([4]; 10 mg SC every 8 weeks): 25.7 events/1000 patient-years
patients adjudicated to normal progression of OA, number ([4]; 10 mg SC every 8 weeks): 1 patient
patients with joint safety event adjudicated to RPOA Type 1 ([4]; 10 mg SC every 8 weeks): 1.4%
patients with joint safety event adjudicated to RPOA Type 1, number ([4]; 10 mg SC every 8 weeks): 7 patients
patients with joint safety events adjudicated to RPOA Type 2 ([4]; 10 mg SC every 8 weeks): 0.4%
patients with joint safety events adjudicated to RPOA Type 2, number ([4]; 10 mg SC every 8 weeks): Two
patients with subchondral insufficiency fracture ([4]; 10 mg SC every 8 weeks): 0.8%
patients with subchondral insufficiency fracture, number ([4]; 10 mg SC every 8 weeks): Four and four
patients with total joint replacement during study observation period, number ([4]; 10 mg SC every 8 weeks): 7 patients
incidence of discontinuations from treatment due to an adverse event ([4]; 10 mg): 7.4%
incidence of serious adverse events ([4]; 10 mg): 4.6%
overall incidence of adverse events ([4]; 10 mg): 63.7%
Primary Osteonecrosis, n (%) [4, 9]: 0 n (%)
RPOA Type 1 [4, 9]: (1.2%)
RPOA Type 2 [4, 9]: (0.2%)
Subchondral Insufficiency Fracture [4, 9]: (0.4%)
patients with joint safety event requiring adjudication ([4]; tanezumab-treated patients (5 and 10 mg combined), 80-week observation period): 2.6%
severity of abnormal peripheral sensation adverse events [5]: mild in severity
severity of potential sympathetic dysfunction events [5]: mild in severity
Primary Osteonecrosis (OA): (0.1%)
RPOA (OA): (4.8%)
RPOA Type 1 (OA): (3.9%)
RPOA Type 2 (OA): (0.9%)
Subchondral Insufficiency Fracture (OA): (0.7%)
binding to NGF (NGF [6]): high specificity and affinity; also recorded: high affinity and specificity
